{"source": "patent US20100009950A1", "about": "“SUBSTITUTED ETHANOLAMINES” (AUSPEX PHARMACEUTICALS, INC., priority 2008, published 2010)", "details": "mark in second data column (bin 0%-50%); 1 mg per mL liver microsome protein, 1 μM, 37° C.; vs non-isotopically enriched compound"}
{"substance": "N-(2-Hydroxy-2-(4-hydroxy-3-(hydroxymethyl)phenyl)ethyl)-6-(4-d3-phenyl-d8-butoxy)hexan-1-d2-aminium 1-hydroxy-2-naphthoate [Example 5]", "values": [{"measurement": "% increase of HLM degradation half-life", "result": "+ (0%-50%)"}]}
